According to ChEMBL document CHEMBL3046483, “Novel 2'-hydroxylfurylchalcones: synthesis and biological activity” (2010):
Active and inactive are the calls of the source. The calls are words filed in the database; no cut-off is given here.

Tested on: Dinebra chinensis
Test: Herbicidal activity against Dinebra chinensis assessed as inhibitory rate of seedling height at 7.5 g/hm'2 relative to control
Type: functional

Row | Compound | inhibition (INH)
1 | Cc1ccc(/C=C/C(=O)c2occc2O)cc1 | -10.1%
2 | O=C(/C=C/c1ccccc1)c1occc1O | -4.4%
3 | O=C(/C=C/c1cccc([N+](=O)[O-])c1)c1occc1O | 1.4%
4 | O=C(/C=C/c1ccc(F)cc1)c1occc1O | 3.5%
5 | O=C(/C=C/c1ccc(Br)cc1)c1occc1O | 4.2%
6 | O=C(/C=C/c1ccc2ccccc2c1)c1occc1O | -7.4%
7 | COC(=O)[C@@H](C)Oc1ccc(Oc2ncc(C(F)(F)F)cc2Cl)cc1 [HALOXYFOP-P-METHYL] | 100%

Tested on: Dinebra chinensis
Test: Herbicidal activity against Dinebra chinensis assessed as inhibitory rate of fresh weight gain at 7.5 g/hm'2 relative to control
Type: functional

Row | Compound | inhibition (INH)
8 | Cc1ccc(/C=C/C(=O)c2occc2O)cc1 | 47.8%
9 | O=C(/C=C/c1ccccc1)c1occc1O | 31.3%
10 | O=C(/C=C/c1cccc([N+](=O)[O-])c1)c1occc1O | 63.1%
11 | O=C(/C=C/c1ccc(F)cc1)c1occc1O | 19%
12 | O=C(/C=C/c1ccc(Br)cc1)c1occc1O | 66.7%
13 | O=C(/C=C/c1ccc2ccccc2c1)c1occc1O | 55.9%
14 | COC(=O)[C@@H](C)Oc1ccc(Oc2ncc(C(F)(F)F)cc2Cl)cc1 [HALOXYFOP-P-METHYL] | 100%

Tested on: Sorghum bicolor
Test: Herbicidal activity against Sorghum bicolor assessed as inhibitory rate of fresh weight gain at 7.5 g/hm'2 relative to control
Type: functional

Row | Compound | inhibition (INH)
15 | Cc1ccc(/C=C/C(=O)c2occc2O)cc1 | 32.3%
16 | O=C(/C=C/c1ccccc1)c1occc1O | 36%
17 | COC(=O)[C@@H](C)Oc1ccc(Oc2ncc(C(F)(F)F)cc2Cl)cc1 [HALOXYFOP-P-METHYL] | 100%

Tested on: Sorghum bicolor
Test: Herbicidal activity against Sorghum bicolor assessed as inhibitory rate of seedling height at 7.5 g/hm'2 relative to control
Type: functional

Row | Compound | inhibition (INH)
18 | Cc1ccc(/C=C/C(=O)c2occc2O)cc1 | -3.8%
19 | O=C(/C=C/c1ccccc1)c1occc1O | 55.3%
20 | COC(=O)[C@@H](C)Oc1ccc(Oc2ncc(C(F)(F)F)cc2Cl)cc1 [HALOXYFOP-P-METHYL] | 100%

Tested on: Triticum aestivum
Test: Herbicidal activity against Triticum aestivum (wheat) assessed as inhibitory rate of fresh weight gain at 7.5 g/hm'2 relative to control
Type: functional

Row | Compound | inhibition (INH)
21 | Cc1ccc(/C=C/C(=O)c2occc2O)cc1 | 53%
22 | O=C(/C=C/c1ccccc1)c1occc1O | 46.2%
23 | O=C(/C=C/c1cccc([N+](=O)[O-])c1)c1occc1O | 52.5%
24 | O=C(/C=C/c1ccc(F)cc1)c1occc1O | 40.6%
25 | O=C(/C=C/c1ccc(Br)cc1)c1occc1O | 64.2%
26 | O=C(/C=C/c1ccc2ccccc2c1)c1occc1O | 45.4%
27 | COC(=O)[C@@H](C)Oc1ccc(Oc2ncc(C(F)(F)F)cc2Cl)cc1 [HALOXYFOP-P-METHYL] | 100%

Tested on: Triticum aestivum
Test: Herbicidal activity against Triticum aestivum (wheat) assessed as inhibitory rate of seedling height at 7.5 g/hm'2 relative to control
Type: functional

Row | Compound | inhibition (INH)
28 | Cc1ccc(/C=C/C(=O)c2occc2O)cc1 | 28.1%
29 | O=C(/C=C/c1ccccc1)c1occc1O | 37.2%
30 | O=C(/C=C/c1cccc([N+](=O)[O-])c1)c1occc1O | 33.9%
31 | O=C(/C=C/c1ccc(F)cc1)c1occc1O | 37%
32 | O=C(/C=C/c1ccc(Br)cc1)c1occc1O | 42.5%
33 | O=C(/C=C/c1ccc2ccccc2c1)c1occc1O | 27.1%
34 | COC(=O)[C@@H](C)Oc1ccc(Oc2ncc(C(F)(F)F)cc2Cl)cc1 [HALOXYFOP-P-METHYL] | 100%

Tested on: Amaranthus tricolor
Test: Herbicidal activity against Amaranthus tricolor assessed as inhibitory rate of fresh weight gain at 7.5 g/hm'2 relative to control
Type: functional

Row | Compound | inhibition (INH)
35 | Cc1ccc(/C=C/C(=O)c2occc2O)cc1 | 72.2%
36 | O=C(/C=C/c1ccccc1)c1occc1O | 32.6%
37 | O=C(/C=C/c1cccc([N+](=O)[O-])c1)c1occc1O | 74.8%
38 | O=C(/C=C/c1ccc(F)cc1)c1occc1O | 24.3%
39 | O=C(/C=C/c1ccc(Br)cc1)c1occc1O | 71.7%
40 | O=C(/C=C/c1ccc2ccccc2c1)c1occc1O | 90.6%
41 | COC(=O)[C@@H](C)Oc1ccc(Oc2ncc(C(F)(F)F)cc2Cl)cc1 [HALOXYFOP-P-METHYL] | 21.6%

Tested on: Amaranthus tricolor
Test: Herbicidal activity against Amaranthus tricolor assessed as inhibitory rate of seedling height at 7.5 g/hm'2 relative to control
Type: functional

Row | Compound | inhibition (INH)
42 | Cc1ccc(/C=C/C(=O)c2occc2O)cc1 | 12.5%
43 | O=C(/C=C/c1ccccc1)c1occc1O | 18.8%
44 | O=C(/C=C/c1cccc([N+](=O)[O-])c1)c1occc1O | 25%
45 | O=C(/C=C/c1ccc(F)cc1)c1occc1O | 6.3%
46 | O=C(/C=C/c1ccc(Br)cc1)c1occc1O | 37.5%
47 | O=C(/C=C/c1ccc2ccccc2c1)c1occc1O | 37.5%
48 | COC(=O)[C@@H](C)Oc1ccc(Oc2ncc(C(F)(F)F)cc2Cl)cc1 [HALOXYFOP-P-METHYL] | 2.1%

Tested on: Brassica rapa subsp. oleifera
Test: Herbicidal activity against Brassica rapa subsp. oleifera assessed as inhibitory rate of fresh weight gain at 7.5 g/hm'2 relative to control
Type: functional

Row | Compound | inhibition (INH)
49 | Cc1ccc(/C=C/C(=O)c2occc2O)cc1 | 45.9%
50 | O=C(/C=C/c1ccccc1)c1occc1O | 60.3%
51 | O=C(/C=C/c1cccc([N+](=O)[O-])c1)c1occc1O | 85.9%
52 | O=C(/C=C/c1ccc(F)cc1)c1occc1O | 15.1%
53 | O=C(/C=C/c1ccc(Br)cc1)c1occc1O | 66.7%
54 | O=C(/C=C/c1ccc2ccccc2c1)c1occc1O | 72.9%
55 | COC(=O)[C@@H](C)Oc1ccc(Oc2ncc(C(F)(F)F)cc2Cl)cc1 [HALOXYFOP-P-METHYL] | 17.2%

Tested on: Brassica rapa subsp. oleifera
Test: Herbicidal activity against Brassica rapa subsp. oleifera assessed as inhibitory rate of seedling height at 7.5 g/hm'2 relative to control
Type: functional

Row | Compound | inhibition (INH)
56 | Cc1ccc(/C=C/C(=O)c2occc2O)cc1 | 33.3%
57 | O=C(/C=C/c1ccccc1)c1occc1O | 38.1%
58 | O=C(/C=C/c1cccc([N+](=O)[O-])c1)c1occc1O | 52.4%
59 | O=C(/C=C/c1ccc(F)cc1)c1occc1O | 19%
60 | O=C(/C=C/c1ccc(Br)cc1)c1occc1O | 52.4%
61 | O=C(/C=C/c1ccc2ccccc2c1)c1occc1O | 52.4%
62 | COC(=O)[C@@H](C)Oc1ccc(Oc2ncc(C(F)(F)F)cc2Cl)cc1 [HALOXYFOP-P-METHYL] | 44.4%

Tested on: Cucumis sativus
Test: Herbicidal activity against Cucumis sativus (cucumber) assessed as inhibitory rate of fresh weight gain at 7.5 g/hm'2 relative to control
Type: functional

Row | Compound | inhibition (INH)
63 | Cc1ccc(/C=C/C(=O)c2occc2O)cc1 | 39.3%
64 | O=C(/C=C/c1ccccc1)c1occc1O | 1.3%
65 | O=C(/C=C/c1cccc([N+](=O)[O-])c1)c1occc1O | 40.6%
66 | O=C(/C=C/c1ccc(F)cc1)c1occc1O | 17.5%
67 | O=C(/C=C/c1ccc(Br)cc1)c1occc1O | 34.5%
68 | O=C(/C=C/c1ccc2ccccc2c1)c1occc1O | 44%
69 | COC(=O)[C@@H](C)Oc1ccc(Oc2ncc(C(F)(F)F)cc2Cl)cc1 [HALOXYFOP-P-METHYL] | 31.5%

Tested on: Cucumis sativus
Test: Herbicidal activity against Cucumis sativus (cucumber) assessed as inhibitory rate of seedling height at 7.5 g/hm'2 relative to control
Type: functional

Row | Compound | inhibition (INH)
70 | Cc1ccc(/C=C/C(=O)c2occc2O)cc1 | 32.7%
71 | O=C(/C=C/c1ccccc1)c1occc1O | 33.7%
72 | O=C(/C=C/c1cccc([N+](=O)[O-])c1)c1occc1O | 46.8%
73 | O=C(/C=C/c1ccc(F)cc1)c1occc1O | 56.8%
74 | O=C(/C=C/c1ccc(Br)cc1)c1occc1O | 40.5%
75 | O=C(/C=C/c1ccc2ccccc2c1)c1occc1O | 41.3%
76 | COC(=O)[C@@H](C)Oc1ccc(Oc2ncc(C(F)(F)F)cc2Cl)cc1 [HALOXYFOP-P-METHYL] | 42.1%

Tested on: Golovinomyces cichoracearum
Test: Antifungal activity against Golovinomyces cichoracearum assessed as cucumber powdery mildew control measured after 1 day
Type: functional
Set-up: concentration or dose not given beside the values

Row | Compound | Activity
77 | Cc1ccc(/C=C/C(=O)c2occc2O)cc1 | <10%
78 | O=C(/C=C/c1ccccc1)c1occc1O | <10%
79 | O=C(/C=C/c1cccc([N+](=O)[O-])c1)c1occc1O | <10%
80 | O=C(/C=C/c1ccc(F)cc1)c1occc1O | <10%
81 | O=C(/C=C/c1ccc(Br)cc1)c1occc1O | <10%
82 | O=C(/C=C/c1ccc2ccccc2c1)c1occc1O | <10%

Tested on: Pyricularia grisea
Test: Antifungal activity against Magnaporthe grisea assessed as rice blast control measured after 1 day
Type: functional, organism-based

Row | Compound | Activity
83 | Cc1ccc(/C=C/C(=O)c2occc2O)cc1 | inactive
84 | O=C(/C=C/c1ccccc1)c1occc1O | inactive
85 | O=C(/C=C/c1cccc([N+](=O)[O-])c1)c1occc1O | inactive
86 | O=C(/C=C/c1ccc(F)cc1)c1occc1O | inactive
87 | O=C(/C=C/c1ccc(Br)cc1)c1occc1O | inactive
88 | O=C(/C=C/c1ccc2ccccc2c1)c1occc1O | inactive

Tested on: Pseudoperonospora cubensis
Test: Antifungal activity against Pseudoperonospora cubensis assessed as cucumber downy mildew control measured after 1 day
Type: functional, organism-based

Row | Compound | Activity
89 | Cc1ccc(/C=C/C(=O)c2occc2O)cc1 | inactive
90 | O=C(/C=C/c1ccccc1)c1occc1O | inactive
91 | O=C(/C=C/c1cccc([N+](=O)[O-])c1)c1occc1O | inactive
92 | O=C(/C=C/c1ccc(F)cc1)c1occc1O | inactive
93 | O=C(/C=C/c1ccc(Br)cc1)c1occc1O | inactive
94 | O=C(/C=C/c1ccc2ccccc2c1)c1occc1O | inactive

Tested on: Botrytis cinerea
Test: Antifungal activity against Botryotinia fuckeliana assessed as cucumber grey mould control measured after 1 day
Type: functional, organism-based

Row | Compound | Activity
95 | Cc1ccc(/C=C/C(=O)c2occc2O)cc1 | inactive
96 | O=C(/C=C/c1ccccc1)c1occc1O | inactive
97 | O=C(/C=C/c1cccc([N+](=O)[O-])c1)c1occc1O | inactive
98 | O=C(/C=C/c1ccc(F)cc1)c1occc1O | inactive
99 | O=C(/C=C/c1ccc(Br)cc1)c1occc1O | inactive
100 | O=C(/C=C/c1ccc2ccccc2c1)c1occc1O | inactive
